The values that follow come from article PMC9377253, “Antiproliferative and cytotoxic effects of sesquiterpene lactones isolated from Ambrosia artemisiifolia on human adenocarcinoma and normal cell lines” (Pharmaceutical Biology, 2022).

The nature of series [1]: MTT cytotoxicity assay (24 h), MRC-5. It is filed as cell-based. As to conditions: human, MRC-5 embryonal lung fibroblast cells, 24 h incubation. As to the method:
(§1) MRC-5 human embryonal lung fibroblast cell lines (ATCC CCL-171) were purchased from LGC Promochem, Teddington, UK. The cell line was cultured in Eagle’s Minimal Essential Medium (EMEM, containing 4.5 g/L glucose) supplemented with a non-essential amino acid mixture, a selection of vitamins and 10% heat-inactivated foetal bovine serum. The cell lines were incubated at 37 °C, in a 5% CO2, 95% air atmosphere.
(§2) MRC-5 non-cancerous human embryonic lung fibroblast and human colonic adenocarcinoma cell lines (doxorubicin-sensitive Colo 205 and multidrug-resistant Colo 320 colonic adenocarcinoma cells) were used to determine the effect of compounds on cell proliferation and growth. The effects of increasing concentrations of compounds on cell proliferation and growth were tested in 96-well flat-bottomed microtitre plates. The compounds were diluted in a volume of 100 μL of medium.
(§3) The adherent human embryonal lung fibroblast cells were seeded overnight and cultured in 96-well flat-bottomed microtitre plates prior to the assay, using EMEM supplemented with 10% heat-inactivated foetal bovine serum. The density of the cells was adjusted to 6 × 10^3 cells (antiproliferative assay) or 1 × 10^4 cells (cytotoxicity assay) in 100 μL per well, the cells were seeded for 24 h at 37 °C, 5% CO2, then the medium was removed from the plates containing the cells, and the dilutions of compounds (200 µL) previously made in a separate plate were added to the cells in.
(§4) The culture plates were incubated at 37 °C for 72 h (antiproliferative test) or 24 h (cytotoxicity test); at the end of the incubation period, 20 μL of MTT (thiazolyl blue tetrazolium bromide, Sigma, St. Louis, MO, USA) solution (from a stock solution of 5 mg/mL) were added to each well. After incubation at 37 °C for 4 h, 100 μL of sodium dodecyl sulphate (SDS) (Sigma) solution (10% in 0.01 M HCI) were added to each well and the plates were further incubated at 37 °C overnight. Cell growth was determined by measuring the optical density (OD) at 540/630 nm with Multiscan EX ELISA reader (Thermo Labsystems, Cheshire, WA, USA). Inhibition of the cell growth was determined according to the formula below: Inhibition %=100−[OD sample−OD medium control/OD cell control−OD medium control]×100
(§5) Results are expressed in terms of IC50, defined as the inhibitory dose that reduces the growth of the cells exposed to the tested compounds by 50%.
For orientation: Tetrazolium assays rely on reduction of a dye to a coloured formazan, in cell work by metabolically active cells.

Series [2] concerns multidrug-resistant Colo 320 colonic adenocarcinoma cells. Put plainly: MTT cytotoxicity assay (24 h), Colo 320. It is filed as cell-based. As to conditions: Homo sapiens, COLO 320, 24 h, 24 h incubation, read-out: Cytotoxicity IC50, Colo320. As to the method:
(§6) Human colonic adenocarcinoma cell lines (Colo 205 doxorubicin-sensitive and Colo 320/MDR-LRP multidrug-resistant expressing ABCB1 (MDR1)-LRP), ATCC-CCL-220.1 (Colo 320) and CCL-222 (Colo 205) were purchased from LGC Promochem, Teddington, UK. The cells were cultured in RPMI 1640 medium supplemented with 10% heat-inactivated foetal bovine serum, 2 mM L-glutamine, 1 mM Na-pyruvate and 100 mM Hepes. The cell lines were incubated at 37 °C, in a 5% CO2, 95% air atmosphere. The semi-adherent human colon cancer cells were detached with Trypsin-Versene (EDTA) solution for 5 min at 37 °C.
as §2
(§7) In case of the colonic adenocarcinoma cells, the 2-fold serial dilutions of compounds were prepared in 100 μL of RPMI 1640, horizontally. The semi-adherent colonic adenocarcinoma cells were treated with Trypsin-Versene (EDTA) solution. The density of the cells was adjusted to 6 × 10^3 cells (antiproliferative assay) or 1 × 10^4 cells (cytotoxicity assay) in 100 μL of RPMI 1640 medium, and was added to each well, with the exception of the medium control wells. The final volume of the wells containing compounds and cells was 200 μL.
as §4, §5

Series [3] has as its system doxorubicin-sensitive Colo 205 colonic adenocarcinoma cells. Put plainly: MTT antiproliferative assay (72 h), Colo 205. It is filed as cell-based, human. Particulars: read-out: Antiproliferative IC50, Colo205. As to the method:
as §6, §2, §7, §4, §5

Series [4] has the same test system. The series can be described thus: MTT cytotoxicity assay (24 h), Colo 205. It is filed as cell-based, human. Particulars: Homo sapiens, COLO 205; MTT, 24 h incubation; read-out: Cytotoxicity IC50, Colo205. Here is the method: as §6, §2, §7, §4, §5
The subject of series [5] is multidrug-resistant Colo 320 colonic adenocarcinoma cells expressing the ABCB1 transporter. The series can be described thus: Checkerboard combination assay with doxorubicin. It is filed as cell-based, human. As to conditions: for drug interaction with doxorubicin: Colo320, at certain concentrations. As to the method:
A checkerboard microplate method was applied to study the effect of drug interactions between the compounds and doxorubicin. The assay was carried out using multidrug-resistant Colo 320 colonic adenocarcinoma cells expressing the ABCB1 transporter. The final concentration of the chemotherapeutic agent doxorubicin used in the combination experiment was chosen in accordance with their antiproliferative activity previously determined. The dilutions of the chemotherapeutic drug were made in a horizontal direction in 100 μL, and the dilutions of the compounds vertically in the microtitre plate in 50 μL volume. The cells were re-suspended in culture medium and distributed into each well in 50 μL containing 6 × 10^3 cells each. The plates were incubated for 72 h at 37 °C in 5% CO2 atmosphere. The cell growth rate was determined after MTT staining. At the end of the incubation period, 20 μL of MTT (thiazolyl blue tetrazolium bromide, Sigma) solution (from a stock solution of 5 mg/mL) was added to each well. After incubation at 37 °C for 4 h, 100 μL of SDS (Sigma-Aldrich, St. Louis, MO, USA) solution (10% in 0.01 M HCl; Merck, Darmstadt, Germany) were added to each well and the plates were further incubated at 37 °C overnight. OD was measured at 540/630 nm with Multiscan EX ELISA reader (Thermo Labsystems, Cheshire, WA). Combination index (CI) values at 50% of the growth inhibition dose (ED50), were determined using CompuSyn software (ComboSyn, Inc., Paramus, NJ) to plot four to five data points to each ratio.

Series [6] relates to MRC-5 human embryonal lung fibroblast cell line. Put plainly: MTT antiproliferative assay (72 h), MRC-5. The series is classed as cell-based. Here is the method:
as §1, §2, §3, §4, §5

Series [7] relates to multidrug-resistant Colo 320 colonic adenocarcinoma cells. The series can be described thus: MTT antiproliferative assay (72 h), Colo 320. The series is classed as cell-based, human. As to conditions: for IC50: MTT, 72 h incubation, read-out: Antiproliferative IC50, Colo320. Here is the method: as §6, §2, §7, §4, §5
Series [8] relates to breast cancer cell lines (MCF-7, JIMT-1 and HCC1937). On the set-up: method as in Sotillo et al. [2017]. Particulars: ref Sotillo et al. [2017]; cited from earlier work.
Series [9] deals with NF-κB. Details: method as in Sotillo et al. [2017]. Particulars: ref Sotillo et al. [2017]; cited from earlier work.
Where [10] appears, read: Homo sapiens, COLO 205, 72 h incubation.
The mark [11] stands for this setting: Homo sapiens, MRC5, 72 h incubation.

SMILES strings stand for the structures.

Molecule `C=C1C(=O)O[C@@H]2C[C@H](C)[C@]3(O)CCC(=O)[C@@]3(C)C[C@H]12` [Compound 3, peruvin] returned an IC50 at 24 h in series [1] of 11.9 ± 1.45 µM. Also, the IC50 in series [2] is 82.4 ± 1.17 µM; in series [3] (setting [10]) it was 26.4 ± 1.12 µM; in series [4], 64.4 ± 1.78 µM; in series [6] (setting [11]), 26.4 ± 1.3 µM; in series [7] (Homo sapiens, COLO 320, 72 h) it was 21.2 ± 0.72 µM. Also, the Type of interaction entry is “Moderate antagonism” in [5] (starting concentration 65 µM, ratio 7.54:1); “Antagonism” in [5] (starting concentration 65 µM, ratio 15.08:1); “Antagonism” in [5] (starting concentration 65 µM, ratio 30.16:1); “Moderate antagonism” in [5] (starting concentration 65 µM, ratio 60.32.1); “Antagonism” in series [5] (starting concentration 65 µM, ratio 120.64:1); “Additive effect” in series [5] (starting concentration 65 µM, ratio 241.28:1).
In series [1], `C=C1C(=O)O[C@@H]2[C@H]1CCC(C)=C(CCC(=O)OC)[C@@]2(C)O` [Compound 5, 1′-noraltamisin] returned an IC50 at 24 h greater than 100 µM. Further, the concentration for half-maximal inhibition (IC50) was greater than 100 µM in series [2]; greater than 100 µM in series [3] (setting [10]); greater than 100 µM in [4]; greater than 100 µM in series [6] (setting [11]); 8.78 µM in series [7] (listed as 1′-Noraltamisin); greater than 100 µM in [7]. Besides, the Type of interaction entry is given as “Antagonism” in series [5] (starting concentration 30 µM, ratio 3.48:1); “Additive effect” in series [5] (starting concentration 30 µM, ratio 6.69:1); “Slight synergism” in [5] (starting concentration 30 µM, ratio 13.92:1); “Additive effect” in [5] (starting concentration 30 µM, ratio 27.84:1); “Moderate antagonism” in [5] (starting concentration 30 µM, ratio 55.68:1); “Additive effect” in [5] (starting concentration 30 µM, ratio 111.36:1).
As for `C=C1C(=O)O[C@@H]2[C@H]1CCC(C)=C1CCC(=O)O[C@]12C` [Compound 6, psilostachyin B], the IC50 was 11 ± 0.56 µM in series [3] (72 h incubation), 26.4 ± 0.81 µM in series [6] (72 h incubation) and 5.29 ± 0.15 µM in series [7]. Moreover, the Type of interaction entry in [5] (starting concentration 100 µM, ratio 11.6:1) is “Syn”; in [5] (starting concentration 100 µM, ratio 23.2:1), “Syn”; in [5] (starting concentration 100 µM, ratio 46.4:1), “Antagonism”; in series [5] (starting concentration 100 µM, ratio 92.8:1) it was “Slight antagonism”; in series [5] (starting concentration 100 µM, ratio 185.6:1), “Moderate ant”; in series [5] (starting concentration 100 µM, ratio 371.2:1), “Antagonism”. The “selectivity index (SI), antiproliferative” value in series [7] (Colo320 versus MRC-5, cell proliferation inhibition) was determined as 4.98.
Consider `C=C1C(=O)O[C@@H]2[C@H]1CC[C@H](C)[C@H](CCC(=O)OC)[C@@]2(C)O` [Compound 7, 1,10-dihydro-1′-noraltamisin], for which, in [1], the IC50 at 24 h was greater than 100 µM. For the same molecule, the 50% inhibitory concentration (IC50) in [2] is 86.6 ± 1.06 µM; in [3] (setting [10]), 17 ± 1.99 µM; in series [4], 53.6 ± 0.87 µM; in [6] (setting [11]), 39.8 ± 0.53 µM; in series [7] (Homo sapiens, COLO 320, 72 h), 34.5 ± 2.07 µM. Besides, the “drug interaction with doxorubicin” value in [5] is listed as “synergistic effects”. For the same molecule, the Type of interaction entry in [5] (starting concentration 150 µM, ratio 17.42:1) is given as “Very strong syn”; in series [5] (starting concentration 150 µM, ratio 34.84:1), “Moderate syn”; in series [5] (starting concentration 150 µM, ratio 69.68:1) it was “Moderate syn”; in series [5] (starting concentration 150 µM, ratio 139.36:1) it was “Moderate syn”; in series [5] (starting concentration 150 µM, ratio 278.72:1) it was “Moderate syn”; in series [5] (starting concentration 150 µM, ratio 557.44:1) it was “Syn”.
Consider `COc1c(O)cc2oc(-c3ccc(O)c(O)c3)c(OC)c(=O)c2c1O` [Compound 8, axillarin], for which the IC50 at 24 h in series [1] is greater than 100 µM. Further, the IC50 was greater than 100 µM in series [2]; 66.8 ± 0.96 µM in series [3] (setting [10]); greater than 100 µM in series [4]; 4.03 ± 0.56 µM in series [6] (setting [11]); 50.4 ± 2.98 µM in [7] (Homo sapiens, COLO 320, 72 h). Also, the “drug interaction with doxorubicin” value in series [5] is “synergistic effects”.
Regarding `COc1cccc2c1C(=O)c1c(O)c3c(c(O)c1C2=O)C[C@@](O)(C(=O)CO)C[C@@H]3O[C@H]1C[C@H](N)[C@H](O)[C@H](C)O1` [Doxorubicin, doxorubicin, reference compound], the concentration for half-maximal inhibition (IC50) in series [3] (setting [10]) came out at 0.24 ± 0.03 µM; in series [6] (setting [11]) it was 0.53 ± 0.06 µM; in series [7] (Homo sapiens, COLO 320, 72 h) it was 0.14 ± 0.03 µM.
As to `C=C1C(=O)O[C@@H]2[C@H]1CC[C@H](C)[C@@H]1C=CC(=O)[C@@]21C` [ambrosin], the “cytotoxicity to breast cancer cell lines” value in series [8] is recorded as “cytotoxic”. Moreover, in series [9], the “TNF-α-induced translocation of NF-κB” value was “inhibited”.
For the molecule `C=C1C(=O)O[C@@H]2[C@H]1CC[C@H](C)[C@]1(O)CCC(=O)[C@@]21C` [coronopilin], the “cytotoxicity to breast cancer cell lines” value in series [8] is listed as “cytotoxic”. In series [9], the “TNF-α-induced translocation of NF-κB” value is recorded as “inhibited”.
Turning to `C=C1C(=O)O[C@@H]2[C@H]1CC[C@H](C)[C@@H]1CCC(=O)[C@@]21C` [damsin], the “cytotoxicity to breast cancer cell lines” value in series [8] is given as “cytotoxic”. In addition, in series [9], the “TNF-α-induced translocation of NF-κB” value is on record as “inhibited”.

As a reminder, the IC50 is the concentration that inhibits the measured activity by half.
